Patent US12590100B2, “Tetrahydro-spiroindoline-pyrrolopyrrole-triones inhibitors of the NRF2-β-TrCP interaction for use in the treatment of fatty liver disease” (Universidad Autonoma De Madrid, priority 2021, dated 2026)

System: peritoneal macrophages (Nrf2-4KI)
Assay: Inflammatory response in LPS-stimulated peritoneal macrophages from Nrf2-4KI mice
Assay type: cell-based, mouse
Conditions: Nrf2-4KI peritoneal macrophages, PHAR 10 μM 8 h
Procedure: FIG. 8. PHAR reduces inflammatory response in peritoneal macrophages originating from Nrf2^+/+ mice but not in peritoneal macrophages originating from LPS-stimulated Nrf2-4KI mice. Peritoneal macrophages originating from wild-type (WT) and serum-deprived NRF2 knock-in (Nrf2-4Ki) mice were pretreated with 10 μM of PHAR for 8 h. 0.1% DMSO was used as a vehicle. After that period of time, the cells were treated with 100 ng/ml of LPS for 4 h. A), representative immunoblots originating from both cell types of NRF2, HO1, pre-IL1β, COX2, NOS2, and GAPDH as a loading control. B), densitometric analysis of NRF2 and HO1 protein levels of the representative immunoblots of (A), expressed as a ratio of protein/GAPDH levels. The data is depicted as means±SEM (n=3). Statistical analysis was performed with two-way ANOVA followed by the Bonferroni test to compare inter-group differences. *p<0.05; **p<0.01; ***p<0.001 vs. LPS. C), Densitometric analysis of pre-IL1b, COX2, and NOS2 protein levels of the representative immunoblots of (A), expressed as a ratio of protein/GAPDH levels. The data is depicted as means±SEM (n=3). Statistical analysis was performed with two-way ANOVA followed by the Bonferroni test to compare inter-group differences. *p<0.05; **p<0.01; ***p<0.001 vs. LPS. D), the mRNA levels of Hmox1, Il1 β, Cox2, Nos2, Il6, and Tnfα were determined by means of qRT-PCR and normalized by means of average Gapdh, Thp, and β-actin. The data is depicted as mean±SEM (n=3). Statistical analysis was performed with two-way ANOVA followed by the Bonferroni test to check inter-group differences. *p<0.05; **p<0.01; ***p<0.001 vs. LPS.
As a complementary approach, peritoneal macrophages extracted from Nrf2^+/+ mice and knock-in mice generated in the laboratory having 4 serines substituted with alanines in critical positions for phosphorylation by priming kinase/priming kinases and by GSK-3β (Serines 335, 338, 342, and 347) were used. Both cell types were pretreated with DMSO or PHAR (10 μM, 8 h) and then stimulated with LPS (100 ng/ml, 4 h). […]

Structure (SMILES): O=C1[C@@H]2[C@H](Cc3c[nH]c4ccccc34)N[C@]3(C(=O)Nc4ccc(Cl)cc43)[C@@H]2C(=O)N1c1ccc2c(c1)OCCO2 [PHAR]
- HO-1 induction: the same HO-1 induction
- NRF2 induction: considerably lower
- protective effect against the inflammatory response (LPS 100 ng/ml 4 h): lost in almost all the inflammatory markers analyzed
